Results taken from ChEMBL document CHEMBL3997854, “Discovery of Orally Efficacious Tetrahydrobenzimidazoles as TGR5 Agonists for Type 2 Diabetes” (ACS Med Chem Lett, 2017).

Legend:
Assay type in all cases: ADME, organism-based
[1] = Plasma concentration in C57BL/6J mouse at 30 mg/kg, po measured at 2 hrs post dose by LC-MS/MS analysis
[2] = Bioavailability in overnight fasted C57BL/6J mouse at 5 mg/kg, iv by LC-MS/MS analysis; details: in vivo
[3] = Volume of distribution at steady state in overnight fasted C57BL/6J mouse at 5 mg/kg, iv by LC-MS/MS analysis; details: in vivo, read-out: Vdss
[4] = AUClast in overnight fasted C57BL/6J mouse at 20 mg/kg, po administered via gavage after 24 hrs by LC-MS/MS analysis; design: dose 20 mg/kg, time < 24 hr, route oral; details: in vivo
[5] = Clearance in overnight fasted C57BL/6J mouse at 5 mg/kg, iv by LC-MS/MS analysis; details: in vivo
[6] = Cmax in overnight fasted C57BL/6J mouse at 20 mg/kg, po administered via gavage by LC-MS/MS analysis; design: dose 20 mg/kg, route oral; details: in vivo
[7] = Half life in overnight fasted C57BL/6J mouse at 20 mg/kg, po administered via gavage by LC-MS/MS analysis; details: in vivo

SMILES | concentration at 2 h [1] [nM] | bioavailability [2] [%] | Vd [3] [L/kg] | AUC(0-t) at 24 h [4] [ng·h/mL] | clearance [5] [mL/min/kg] | Cmax [6] [ng/mL] | half-life [7] [h]
COc1cc(C2(C)CCCc3nc(SCc4c(F)cc(OCCOCCOCCN(C)C)cc4F)n(-c4ccc(F)cc4)c32)ccc1Cl (stereo not given) | 1610 | 13.9 | 1.63 | 2540 | 18.1 | 918 | 1.33
COc1cc(C2(C)CCCc3nc(SCc4c(F)cc(OCCOCCOCCN(C)C)cc4F)n(-c4ccc(F)cc4)c32)ccc1F (stereo not given) | 2110 | 22.1 | 0.818 | 7160 | 10.2 | 2410 | 2
COc1ccc(C2(C)CCCc3nc(SCc4c(F)cc(OCCOCCOCCN(C)C)cc4F)n(-c4ccc(F)cc4)c32)cc1OC (stereo not given) | 2210 | 27.5 | 0.947 | 9350 | 9.68 | 2890 | 2.1
COc1cc(C2(C)CCCc3nc(SCc4c(F)ccc(OCCOCCOCCN(C)C)c4F)n(-c4ccc(F)cc4)c32)ccc1Cl (stereo not given) | 760 | – | – | – | – | – | –

Results, then the compound that gave them:

concentration at 2 h [1] [nM] | bioavailability [2] [%] | Vd [3] [L/kg] | AUC(0-t) at 24 h [4] [ng·h/mL] | clearance [5] [mL/min/kg] | Cmax [6] [ng/mL] | half-life [7] [h] | SMILES
100 | – | – | – | – | – | – | COc1ccc(C2(C)CCCc3nc(SCc4ncccn4)n(-c4ccc(F)cc4)c32)cc1OC (stereo not given)
200 | 9.44 | 1.43 | 527 | 58.4 | 507 | – | COc1cc(C2(C)CCCc3nc(SCc4ncccn4)n(-c4ccc(F)cc4)c32)ccc1Cl (stereo not given)
280 | 10.8 | 0.856 | 785 | 45.3 | 913 | – | COc1cc(C2(C)CCCc3nc(SCc4ncccn4)n(-c4ccc(F)cc4)c32)ccc1F (stereo not given)
